According to ChEMBL document CHEMBL4406808, “Synthesis and assessment of phenylacrylamide derivatives as potential anti-oxidant and anti-inflammatory agents” (Eur J Med Chem, 2019):
Active and inactive are the calls of the source. The calls are words filed in the database; no cut-off is given here.

How the values were obtained:
[1] = target: Kelch-like ECH-associated protein 1 (Rattus norvegicus) (UniProt P57790); experiment: Binding affinity to Keap1 in rat HBZY-1 cells assessed as induction of Keap1/Nrf2 signaling by measuring increase in GCLC protein expression by Western blot analysis; type: cell-based
[2] = target: Kelch-like ECH-associated protein 1 (Rattus norvegicus) (UniProt P57790); experiment: Binding affinity to Keap1 in rat HBZY-1 cells assessed as induction of Keap1/Nrf2 signaling by measuring increase in HO-1 protein expression at 6 uM by Western blot analysis; type: cell-based; conditions: TDE = time-dependent effect
[3] = test system: HBZY-1; experiment: Cytoprotection activity against H2O2-induced cell death in rat HBZY-1 cells assessed as cell viability at 6 uM preincubated with compound for 2 hrs followed by H2O2 addition and measured after 24 hrs by MTT assay (reference value: 62.1%); type: functional; conditions: read-out: Activity
[4] = target: Kelch-like ECH-associated protein 1 (Rattus norvegicus) (UniProt P57790); experiment: Binding affinity to Keap1 in rat HBZY-1 cells transfected with pNF-kB-Luc/pRL-CMV assessed as induction of Keap1/Nrf2 signaling by measuring reduction in LPS-induced NFkappaB activation at 6 uM preincubated for 30 mins followed by LPS stimulation and measured after 12 hrs in presence of HO-1 inhibitor ZnPP by luciferase reporter gene assay; type: cell-based
[5] = test system: HBZY-1; experiment: Antiinflammatory activity in rat HBZY-1 cells assessed as reduction in LPS-induced NO production preincubated for 30 mins followed by LPS stimulation and measured after 24 hrs by Griess assay; type: functional, cell-based
[6] = target: Kelch-like ECH-associated protein 1 (Rattus norvegicus) (UniProt P57790); experiment: Binding affinity to Keap1 in rat HBZY-1 cells transfected with pNF-kB-Luc/pRL-CMV assessed as induction of Keap1/Nrf2 signaling by measuring reduction in LPS-induced NFkappaB activation preincubated for 30 mins followed by LPS stimulation and measured after 12 hrs by luciferase reporter gene assay; type: cell-based
[7] = target: Kelch-like ECH-associated protein 1 (Rattus norvegicus) (UniProt P57790); experiment: Binding affinity to Keap1 in rat HBZY-1 cells assessed as induction of Keap1/Nrf2 signaling by measuring increase in HO-1 protein expression by Western blot analysis; type: cell-based
[8] = target: Kelch-like ECH-associated protein 1 (Rattus norvegicus) (UniProt P57790); experiment: Binding affinity to Keap1 in rat HBZY-1 cells assessed as disruption of Keap1/Nrf2 complex by measuring Nrf2 expression in presence of DTT by Western blot analysis; type: cell-based
[9] = target: Kelch-like ECH-associated protein 1 (Rattus norvegicus) (UniProt P57790); experiment: Binding affinity to Keap1 in rat HBZY-1 cells assessed as disruption of Keap1/Nrf2 complex by measuring Keap1 expression in presence of DTT by Western blot analysis; type: cell-based
[10] = test system: HBZY-1; experiment: Cytoprotection activity against H2O2-induced cell death in rat HBZY-1 cells assessed as increase in cell viability preincubated with compound for 2 hrs followed by H2O2 addition and measured after 24 hrs by MTT assay; type: functional, cell-based
[11] = target: Kelch-like ECH-associated protein 1 (Rattus norvegicus) (UniProt P57790); experiment: Binding affinity to Keap1 in rat HBZY-1 cells assessed as induction of Keap1/Nrf2 signaling by measuring induction of Nrf2 nuclear translocation by measuring increase in ratio of nuclear to cytosolic Nrf2 level at 6 uM by Western blot analysis; type: cell-based; conditions: TDE = time-dependent effect
[12] = test system: HBZY-1; experiment: Cytoprotection against H2O2-induced cell death in rat HBZY-1 cells assessed as increase in cell viability at 6 uM preincubated for 2 hrs followed by H2O2 addition and measured after 24 hrs in presence of Nrf2 inhibitor TRG by MTT assay; type: functional, cell-based
[13] = target: Kelch-like ECH-associated protein 1 (Rattus norvegicus) (UniProt P57790); experiment: Binding affinity to Keap1 in rat HBZY-1 cells assessed as induction of Keap1/Nrf2 signaling by measuring increase in NQO-1 protein expression at 6 uM by Western blot analysis; type: cell-based; conditions: TDE = time-dependent effect
[14] = target: Kelch-like ECH-associated protein 1 (Rattus norvegicus) (UniProt P57790); experiment: Binding affinity to Keap1 in rat HBZY-1 cells assessed as induction of Keap1/Nrf2 signaling by measuring increase in GCLM protein expression at 6 uM by Western blot analysis; type: cell-based; conditions: TDE = time-dependent effect
[15] = target: T1, Nuclear factor erythroid 2-related factor 2 (Homo sapiens) (UniProt Q16236); experiment: Activation of Nrf2 (unknown origin) expressed in HEK293 cells co-transfected with ARE luciferase reporter plasmid after 16 hrs by dual luciferase reporter gene assay; type: cell-based
T1 sequence (whole entry): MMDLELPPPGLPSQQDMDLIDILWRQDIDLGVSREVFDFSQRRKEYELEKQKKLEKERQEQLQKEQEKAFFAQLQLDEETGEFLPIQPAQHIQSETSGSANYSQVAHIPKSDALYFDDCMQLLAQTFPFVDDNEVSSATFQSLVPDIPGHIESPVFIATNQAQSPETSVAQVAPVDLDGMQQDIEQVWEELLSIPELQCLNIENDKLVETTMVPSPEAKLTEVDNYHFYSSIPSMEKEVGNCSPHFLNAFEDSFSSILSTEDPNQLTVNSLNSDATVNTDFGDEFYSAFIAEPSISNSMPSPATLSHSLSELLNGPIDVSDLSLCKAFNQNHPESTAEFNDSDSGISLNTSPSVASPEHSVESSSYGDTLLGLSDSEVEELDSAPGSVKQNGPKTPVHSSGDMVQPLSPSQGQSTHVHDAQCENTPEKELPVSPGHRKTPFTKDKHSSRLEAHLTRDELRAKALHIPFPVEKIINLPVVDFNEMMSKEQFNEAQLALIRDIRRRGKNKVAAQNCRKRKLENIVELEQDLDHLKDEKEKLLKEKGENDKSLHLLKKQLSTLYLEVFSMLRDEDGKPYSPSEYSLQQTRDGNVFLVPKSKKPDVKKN

[16] = test system: HBZY-1; experiment: Cytoprotection against H2O2-induced cell death in rat HBZY-1 cells assessed as increase in cell viability at 6 uM preincubated for 2 hrs followed by H2O2 addition and measured after 24 hrs in presence of HO-1 inhibitor ZnPP by MTT assay; type: functional, cell-based
[17] = test system: HBZY-1; experiment: Cytoprotection against H2O2-induced cell death in rat HBZY-1 cells assessed as increase in cell viability at 6 uM preincubated for 2 hrs followed by H2O2 addition and measured after 24 hrs in presence of GCL inhibitor BSO by MTT assay; type: functional, cell-based
[18] = target: Kelch-like ECH-associated protein 1 (Rattus norvegicus) (UniProt P57790); experiment: Binding affinity to Keap1 in rat HBZY-1 cells assessed as disruption of Keap1/Nrf2 complex by measuring increase in Nrf2 expression by Western blot analysis; type: cell-based
[19] = target: Kelch-like ECH-associated protein 1 (Rattus norvegicus) (UniProt P57790); experiment: Binding affinity to Keap1 in rat HBZY-1 cells assessed as induction of Keap1/Nrf2 signaling by measuring increase in NQO-1 protein expression by Western blot analysis; type: cell-based
[20] = test system: HBZY-1; experiment: Antioxidant activity in rat HBZY-1 cells assessed as reduction in H2O2-induced intracellular ROS accumulation incubated with compound prior to H2O2 addition by DCFH-DA based flow cytometry; type: functional, cell-based
[21] = target: Kelch-like ECH-associated protein 1 (Rattus norvegicus) (UniProt P57790); experiment: Binding affinity to Keap1 in rat HBZY-1 cells assessed as induction of Nrf2 nuclear translocation by measuring increase in ratio of nuclear to cytosolic Nrf2 level by Western blot analysis; type: cell-based
[22] = test system: HBZY-1; experiment: Antiinflammatory activity in rat HBZY-1 cells assessed as reduction in NO production at 6 uM preincubated for 30 mins followed by LPS stimulation and measured after 24 hrs in presence of HO-1 inhibitor ZnPP by Griess assay; type: functional, cell-based
[23] = target: Kelch-like ECH-associated protein 1 (Rattus norvegicus) (UniProt P57790); experiment: Binding affinity to Keap1 in rat HBZY-1 cells assessed as disruption of Keap1/Nrf2 complex by measuring reduction in Keap1 protein expression by Western blot analysis; type: cell-based
[24] = target: Kelch-like ECH-associated protein 1 (Rattus norvegicus) (UniProt P57790); experiment: Binding affinity to Keap1 in rat HBZY-1 cells assessed as induction of Keap1/Nrf2 signaling by measuring increase in GCLC protein expression at 6 uM by Western blot analysis; type: cell-based; conditions: TDE = time-dependent effect
[25] = test system: HBZY-1; experiment: Antiinflammatory activity in rat HBZY-1 cells assessed as reduction in nitric oxide production at 6 uM preincubated for 30 mins followed by LPS stimulation and measured after 24 hrs in presence of Nrf2 inhibitor TRG by Griess assay; type: functional, cell-based
[26] = target: Kelch-like ECH-associated protein 1 (Rattus norvegicus) (UniProt P57790); experiment: Binding affinity to Keap1 in rat HBZY-1 cells assessed as induction of Keap1/Nrf2 signaling by measuring increase in GCLM protein expression by Western blot analysis; type: cell-based
[27] = test system: HBZY-1; experiment: Cytotoxicity against rat HBZY-1 cells assessed as reduction in cell viability after 2 hrs by MTT assay; type: cell-based; conditions: HBZY-1, 2 h
[28] = target: Kelch-like ECH-associated protein 1 (Rattus norvegicus) (UniProt P57790); experiment: Binding affinity to Keap1 in rat HBZY-1 cells transfected with pNF-kB-Luc/pRL-CMV assessed as induction of Keap1/Nrf2 signaling by measuring reduction in LPS-induced NFkappaB activation at 6 uM preincubated for 30 mins followed by LPS stimulation and measured after 12 hrs in presence of Nrf2 inhibitor TRG by luciferase reporter gene assay; type: cell-based
[29] = target: T1, Nuclear factor erythroid 2-related factor 2 (Homo sapiens); experiment: Activation of Nrf2 (unknown origin) expressed in HEK293 cells co-transfected with ARE luciferase reporter plasmid at 20 uM after 16 hrs by dual luciferase reporter gene assay; type: cell-based

Sequence of Kelch-like ECH-associated protein 1 (Rattus norvegicus) (P57790 whole entry): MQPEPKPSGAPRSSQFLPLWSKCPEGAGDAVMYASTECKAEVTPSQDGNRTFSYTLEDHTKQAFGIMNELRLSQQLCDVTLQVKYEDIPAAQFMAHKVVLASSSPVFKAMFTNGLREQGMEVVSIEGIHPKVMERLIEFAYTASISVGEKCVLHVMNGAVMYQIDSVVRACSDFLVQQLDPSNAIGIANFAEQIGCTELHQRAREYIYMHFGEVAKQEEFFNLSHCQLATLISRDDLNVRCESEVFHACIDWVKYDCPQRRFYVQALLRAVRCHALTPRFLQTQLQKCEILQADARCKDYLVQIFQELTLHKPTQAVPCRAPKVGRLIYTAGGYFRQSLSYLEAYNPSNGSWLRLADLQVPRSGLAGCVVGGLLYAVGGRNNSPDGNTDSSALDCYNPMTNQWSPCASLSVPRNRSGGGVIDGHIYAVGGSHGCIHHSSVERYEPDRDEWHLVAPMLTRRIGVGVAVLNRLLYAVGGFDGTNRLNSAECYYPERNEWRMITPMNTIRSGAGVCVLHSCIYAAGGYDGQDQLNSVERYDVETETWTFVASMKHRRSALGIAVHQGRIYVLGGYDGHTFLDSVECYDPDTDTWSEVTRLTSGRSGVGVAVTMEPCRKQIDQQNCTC

COc1ccccc1NC(=O)/C(C#N)=C/c1ccccc1C(F)(F)F
Activity [1]: Dose-dependent effect
Activity [2]: Tde
viability at 6 µM [3]: 65.6 to 96.4%
Activity [4]: inactive
Activity [5]: Dose-dependent effect
Activity [6]: Dose-dependent effect
Activity [7]: Dose-dependent effect
Activity [8]: inactive
Activity [9]: inactive
Activity [10]: Dose-dependent effect
Activity [11]: Tde
Activity [12]: inactive
Activity [13]: Tde
Activity [14]: Tde
Activity [15]: Dose-dependent effect
Activity [16]: inactive
Activity [17]: inactive
Activity [18]: Active
Activity [19]: Dose-dependent effect
Activity [20]: Dose-dependent effect
Activity [21]: Dose-dependent effect
Activity [22]: inactive
Activity [23]: Active
Activity [24]: Tde
Activity [25]: inactive
Activity [26]: Dose-dependent effect
IC50 [27]: > 200 µM
Activity [28]: inactive

COc1ccc(CCNC(=O)/C=C/c2ccccc2C(F)(F)F)cc1OC
viability at 6 µM [3]: 65.6 to 96.4%
IC50 [27]: > 200 µM

C[S+]([O-])CCCCN=C=S (stereo not drawn) [SULFORAPHANE]
viability at 6 µM [3]: 80%

COc1ccccc1NC(=O)/C(C#N)=C/c1ccc(C)cc1
viability at 6 µM [3]: 65.6 to 96.4%
IC50 [27]: > 200 µM

COc1ccccc1NC(=O)/C(C#N)=C/c1cc(OC)c(OC)c(OC)c1
viability at 6 µM [3]: 78.1%
IC50 [27]: > 200 µM

COc1ccccc1NC(=O)/C(C#N)=C/c1cccc([N+](=O)[O-])c1
viability at 6 µM [3]: 65.6 to 96.4%
IC50 [27]: > 200 µM

COc1ccccc1NC(=O)/C(C#N)=C/c1ccccc1C
viability at 6 µM [3]: 65.6 to 96.4%
IC50 [27]: > 200 µM

COc1ccc(NC(=O)/C(C#N)=C/c2ccccc2C(F)(F)F)cc1
viability at 6 µM [3]: 82.4%
IC50 [27]: > 200 µM

COc1ccccc1NC(=O)/C(C#N)=C/c1cccc(C)c1
viability at 6 µM [3]: 65.6 to 96.4%
IC50 [27]: > 200 µM

COc1ccc(/C=C(\C#N)C(=O)Nc2ccccc2OC)cc1
viability at 6 µM [3]: 65.6 to 96.4%
IC50 [27]: > 200 µM

COc1ccc(CNC(=O)/C=C/c2ccccc2C(F)(F)F)cc1
viability at 6 µM [3]: 65.6 to 96.4%
IC50 [27]: > 200 µM

COc1ccc(NC(=O)/C(C#N)=C/c2ccccc2C(F)(F)F)cc1OC
viability at 6 µM [3]: 78.2%
IC50 [27]: > 200 µM

COc1ccc(CCNC(=O)/C(C#N)=C/c2ccccc2C(F)(F)F)cc1OC
viability at 6 µM [3]: 65.6 to 96.4%
IC50 [27]: > 200 µM

COc1cc(NC(=O)/C=C/c2ccccc2C(F)(F)F)cc(OC)c1OC
viability at 6 µM [3]: 65.6 to 96.4%
IC50 [27]: > 200 µM

N#C/C(=C\c1ccccc1C(F)(F)F)C(=O)Nc1ccc(F)c(Cl)c1
viability at 6 µM [3]: 80.4%
IC50 [27]: > 200 µM

O=C(/C=C/c1ccccc1C(F)(F)F)Nc1ccc(F)c(Cl)c1
viability at 6 µM [3]: 65.6 to 96.4%
IC50 [27]: > 200 µM

COc1ccc(NC(=O)/C=C/c2ccccc2C(F)(F)F)cc1
viability at 6 µM [3]: 65.6 to 96.4%
IC50 [27]: > 200 µM

CCCCNC(=O)/C(C#N)=C/c1ccccc1C(F)(F)F
viability at 6 µM [3]: 65.6 to 96.4%
IC50 [27]: > 200 µM

COc1ccccc1C(=O)/C=C/c1ccccc1C(F)(F)F
viability at 6 µM [3]: 80.3%

COc1ccccc1NC(=O)/C(C#N)=C/c1ccc(OC)c(OC)c1
viability at 6 µM [3]: 78.4%
IC50 [27]: > 200 µM

COc1ccc(CNC(=O)/C(C#N)=C/c2ccccc2C(F)(F)F)cc1
viability at 6 µM [3]: 80.8%
IC50 [27]: > 200 µM

COc1ccc(NC(=O)/C=C/c2ccccc2C(F)(F)F)cc1OC
viability at 6 µM [3]: 65.6 to 96.4%
IC50 [27]: > 200 µM

COc1ccccc1NC(=O)/C=C/c1ccccc1C(F)(F)F
viability at 6 µM [3]: 65.6 to 96.4%
IC50 [27]: > 200 µM

CC(C)(C)c1cc(O)ccc1O
Activity [29]: Active

COc1cc(NC(=O)/C(C#N)=C/c2ccccc2C(F)(F)F)cc(OC)c1OC
viability at 6 µM [3]: 65.6 to 96.4%
IC50 [27]: > 200 µM
